The values below are quoted from earlier work in patent publication US11576862B2, “Methods and compositions for preparing a silk microsphere” (Trustees of Tufts College, priority 2012, dated 2023).

Where a name gives a salt, the structure may show the parent alone.

With `CC12CC3CC(C)(C1)CC(N)(C3)C2` [Memantine hydrochloride, 3,5-dimethyltricyclo[3.3.1.1]decan-1amine], the water solubility is reported as 50 mg/mL.
